Data published in US20050032863A1, “Method of treating or preventing central nervous system disorders with compounds having selectivity for the alpha 3 subunit of the benzodiazepine receptor” (priority 2003, published 2005).
Entries after “also recorded” stand apart in the source; their conditions may differ.

Columns and labels:
[1] = molecular target: T1, recombinant rat α2β2γ2 GABAA receptors (Rattus norvegicus, UniProt P23576); assay: Whole-cell patch-clamp, modulation of GABA (EC20)-induced currents in transfected HEK 293 cells, α2β2γ2; format: cell-based; settings: α2β2γ2
T1 construct: expressed in transfected cells; host or cells: HEK 293
Experimental: For electrophysiological recording HEK-293 cells were passaged and replated on 12-mm glass coverslips located in 9.6-cm plastic dishes filled with 10 ml of Minimum Essential Medium (MEM, Gibco) supplemented with 158 mg/l sodium bicarbonate, 2 mM glutamine (Gibco), 100 U/ml penicillin-streptomycin (Gibco), and 10% foetal calf serum (Gibco). Cultures were maintained at 37° C. in a humidified […]/5% CO2 atmosphere for 2-3 days.
Transfection with recombinant rat GABAA receptors was carried out as described in detail (Korpi and Lüddens, 1993, Lüddens and Korpi, 1995b). Briefly, HEK 293 cells were transfected in triple combinations using the phosphate precipitation method with rat GABAA receptor cDNAs in eukaryotic expression vectors (Pritchett, 1990) for the α, β and γ subunits. For optimal receptor expression, final concentrations (μg vector DNA per 9.6 cm tissue culture plate) were: α1, 2; α2 4.8; α3, 1.2; α4, 10; α5, 0.8; β2, 0.4; and γ2S, 0.3. The γ2S variant is abbreviated γ2 in the remainder of the text. To identify transfected cells all subunit combinations were co-transfected with 1 μg per plate of pNI-EGFP.
Two days after transfection single coverslips containing HEK 293 cells were placed in a recording chamber mounted on the movable stage of a fluorescence microscope (Olympus IX70) and perfused with a defined saline solution containing (in mM): 130 NaCl, 5.4 KCl, 2 CaCl2, 2 MgSO4, 10 glucose, 5 sucrose, and 10 HEPES (free acid), pH adjusted to 7.35 with about 35 mM NaOH. Transfected cells were identified by their green fluorescence due to the expression of the pNI-EGFP vector and ligand-mediated membrane currents of these cells were studied in the whole-cell configuration of the patch-clamp technique (Hamil et al., 1981). Patch-clamp pipettes were pulled from hard borosilicate capillary glass (0.5 mm ID, 1.5 mm OD, Vitrex, Science Products GmbH, Hofheim, Germany) using a horizontal puller (Sutter Instruments, CA, Model P-97) in a multi-stage process.
Seal resistances >1 GΩ were routinely obtained by applying gentle suction to the pipettes. Membrane rupture was monitored electrically as an increase in capacity. Pipette capacitance, membrane capacitance, and series resistance were electronically compensated to achieve minimal capacitative transients. A series resistance compensation of >60% was regularly used.
In all cells recorded the presence of the γ2 subunit in the heteropentamere was monitored by the application of 1 μM zolpidem plus the EC20 of GABA before testing the experimental drugs.
Responses of the cells were recorded by a patch-clamp amplifier (EPC-8, HEKA-Electronic, Lambrecht, Germany) in conjunction with a standard personal computer and the pClamp 8.1 software package (Axon Instruments, Foster City, Calif.). The standard holding-potential for the cells was −40 mV. Whole cell currents were low-pass filtered by an eight-pole Bessel filter at 5 or 3 kHz before being digitised by a Digidata 1322A interface (Axon Instruments, Foster City, Calif.) and recorded by the computer at a sampling rate of at least […].
Efficacy, potency, and GABAA receptor a subunit specificity of the new compound ELB139 was tested with the whole cell configuration of the patch-clamp technique by applying increasing drug concentration together with GABA of the approximate EC20 on green fluorescing cells. BZ binding site specificity of the new compound was tested on the same cells in an identical experimental setting with additionally applying 10 μM Ro15-1788.

[2] = tested on: extracellular 5-HT, HIAA and dopamine in the striatum of rats; assay: Microdialysis in the striatum of rats (Example 3); format: in vivo, rat; settings: 30 mg/kg i.p.
Experimental: The day before the experiment, male rats were anaesthetised with chloral hydrate (3.6%, 1 ml/100 g i.p.) and placed in a stereotaxic frame to implant a microdialysis guide cannula (CMA/12, Carnegie Medicine, Sweden). Scalp was incised in the median anterior-posterior direction between lambda and bregma and a small hole was drilled into the skull. The stereotaxic coordinates were AP=+1.0 mm, L=−3.0 mm from bregma and 1.5 mm from the skull surface for the striatum according to the atlas of Paxinos and Watson, (1986) (1). Dental cement (Sinfony(2)) was used to fix the guide cannula and anchor screws to the cranium. During the surgery rectal temperature was maintained at 37° C. using a heating blanket.
The day before the experiment the microdialysis probe (CMA/12, membrane length 4 mm, Carnegie Medicin, Sweden) was inserted into the striatum through the guide cannula. On the day of experiment the probe was perfused with Ringer solution (148 mM NaCl, 4 mM KCl, 2,4 mM CaCl2, pH=6,0). The flow rate (1 μl/min) allowed to collect 20 μl samples every 20 minutes into microvials. Microvials were stored in a fraction collector (CMA/170) at a temperature of 8° C. until analysed. Using a swivel joint the perfusion arrangement allowed the animal to move freely within a hemispherical bowl. After an adjusting time of one hour 3 consecutive 20-min-fractions were collected to establish a stable basal level of neurotransmitter release.
Thereafter 30 mg/kg E131-00139 or an equivalent volume of 0.5% tylose/PEG300 9:1, respectively, was administered. Then collecting samples was continued for at least 220 minutes.
Dialysates were directly analysed by reverse-phase high-performance liquid chromatography with electrochemical detection (HPLC-EC). The samples were separated by a ZORBAX SB-Aq 2.1 mm ID×100 mm column (Agilent Technologies). […]
Therefore data of each animal were expressed as percentages. Data from dialysates before administering the substances were averaged, and the mean set as 100%; all individual values were calculated accordingly.

T1 sequence (P23576 29-451): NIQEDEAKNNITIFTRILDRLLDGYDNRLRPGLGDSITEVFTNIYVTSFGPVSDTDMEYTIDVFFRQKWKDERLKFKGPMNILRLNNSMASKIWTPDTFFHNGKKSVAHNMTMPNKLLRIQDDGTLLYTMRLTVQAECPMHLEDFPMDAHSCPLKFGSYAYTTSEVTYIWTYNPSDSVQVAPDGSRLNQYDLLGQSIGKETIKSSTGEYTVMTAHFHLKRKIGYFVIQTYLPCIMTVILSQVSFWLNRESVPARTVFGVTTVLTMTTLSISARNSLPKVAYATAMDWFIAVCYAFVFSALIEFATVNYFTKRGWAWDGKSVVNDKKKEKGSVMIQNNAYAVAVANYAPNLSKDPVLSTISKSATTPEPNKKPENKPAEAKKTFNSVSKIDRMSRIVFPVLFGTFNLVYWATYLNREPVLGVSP

## O=C1N=C(N2CCCCC2)CN1c1ccc(Cl)cc1 [ELB139, 1-(4-chlorophenyl)-4-piperidinoimidazolin-2-one]
[1]; ELB139 0.01-30 μM
  modulation of GABA-induced currents (in words): failed to evoke agonistic or inverse agonistic modulation; also recorded: no agonistic effect; also recorded: not at all active
[1]; applied with approximate GABA EC20, read-out: EC50 (ELB139)
  EC50: > 30 µM
[2]
  HIAA concentration in the striatum: without influencing
  dopamine concentration in the striatum: did also not influence
[2]; vs tylose vehicle
  5-HT concentration in the striatum: significantly and unexpectedly increased
